Assay results: the NIST ThermoML archive (doi:10.1021/je060271a)
Several values for one entry are separate records, joined by “and”; a condition that tells them apart may be missing. Equal entries are not always repeated.

Conditions: 303.15 K, Liquid, Vibrating tube method

CCCCCC(=O)OCC(COC(=O)CCCCC)(COC(=O)CCCCC)COC(=O)CCCCC [pentaerythritol tetrahexanoate]
Conditions | mass density
8586.4 kPa | 993.8 kg/m3
8609.7 kPa | 993.8 kg/m3
8636.8 kPa | 993.8 kg/m3
8659.9 kPa | 993.9 kg/m3
8683.2 kPa | 993.9 kg/m3
8710.9 kPa | 993.9 kg/m3
8734.7 kPa | 993.9 kg/m3
8758.2 kPa | 993.9 kg/m3
8782.3 kPa | 993.9 kg/m3
8806.3 kPa | 994 kg/m3
8834.9 kPa | 994 kg/m3
8858 kPa | 993.9 kg/m3
8886.3 kPa | 994 kg/m3
8910.4 kPa | 994 kg/m3
8934.4 kPa | 994 kg/m3
8958.2 kPa | 994 kg/m3
8987 kPa | 993.9 kg/m3
9010.8 kPa | 994.1 kg/m3
9035.1 kPa | 994.1 kg/m3
9064.4 kPa | 994.1 kg/m3
9088.5 kPa | 994.1 kg/m3
9118.9 kPa | 994.2 kg/m3
9143 kPa | 994.1 kg/m3
9168.2 kPa | 994.3 kg/m3
9192.8 kPa | 994.1 kg/m3
9222.6 kPa | 994.1 kg/m3
9247.5 kPa | 994.2 kg/m3
9272.5 kPa | 994.3 kg/m3
9301.8 kPa | 994.2 kg/m3
9327.6 kPa | 994.2 kg/m3
9352.8 kPa | 994.4 kg/m3
9378.4 kPa | 994.3 kg/m3
9409.1 kPa | 994.3 kg/m3
9434.6 kPa | 994.3 kg/m3
9461.4 kPa | 994.4 kg/m3
9492.2 kPa | 994.3 kg/m3
9517.5 kPa | 994.3 kg/m3
9543.4 kPa | 994.4 kg/m3
9574.4 kPa | 994.4 kg/m3
9600.4 kPa | 994.5 kg/m3
9627 kPa | 994.4 kg/m3
9658 kPa | 994.6 kg/m3
9684.2 kPa | 994.6 kg/m3
9710.4 kPa | 994.5 kg/m3
9742.2 kPa | 994.4 kg/m3
9768.8 kPa | 994.5 kg/m3
9796.2 kPa | 994.6 kg/m3
9828.9 kPa | 994.6 kg/m3
9855.9 kPa | 994.7 kg/m3
9882.5 kPa | 994.6 kg/m3
9909.3 kPa | 994.6 kg/m3
9941.9 kPa | 994.6 kg/m3
9968.9 kPa | 994.7 kg/m3
9997 kPa | 994.7 kg/m3
10030 kPa | 994.7 kg/m3
10057 kPa | 994.7 kg/m3
10085 kPa | 994.7 kg/m3
10118 kPa | 994.7 kg/m3
10146 kPa | 994.8 kg/m3
10174 kPa | 994.8 kg/m3
10202 kPa | 994.8 kg/m3
10236 kPa | 994.8 kg/m3
10264 kPa | 994.8 kg/m3
10297 kPa | 994.8 kg/m3
10325 kPa | 994.9 kg/m3
10354 kPa | 994.8 kg/m3
10383 kPa | 994.8 kg/m3
10417 kPa | 994.9 kg/m3
10445 kPa | 994.9 kg/m3
10474 kPa | 995 kg/m3
10508 kPa | 994.9 kg/m3
10537 kPa | 994.9 kg/m3
10573 kPa | 995.1 kg/m3
11095 kPa | 995.5 kg/m3
11124 kPa | 995.3 kg/m3
11154 kPa | 995.4 kg/m3
11188 kPa | 995.3 kg/m3
11217 kPa | 995.4 kg/m3
11246 kPa | 995.5 kg/m3
11280 kPa | 995.5 kg/m3
11309 kPa | 995.4 kg/m3
11338 kPa | 995.5 kg/m3
11372 kPa | 995.5 kg/m3
11399 kPa | 995.6 kg/m3
11427 kPa | 995.6 kg/m3
11649 kPa | 995.6 kg/m3
11671 kPa | 995.7 kg/m3
11694 kPa | 995.7 kg/m3
11712 kPa | 995.7 kg/m3
11728 kPa | 995.6 kg/m3
11744 kPa | 995.7 kg/m3
11761 kPa | 995.7 kg/m3
11774 kPa | 995.7 kg/m3
11800 kPa | 995.8 kg/m3
11835 kPa | 995.8 kg/m3
11840 kPa | 995.9 kg/m3
11846 kPa | 995.8 kg/m3
11853 kPa | 995.9 kg/m3
11865 kPa | 995.8 kg/m3
11879 kPa | 995.9 kg/m3
11887 kPa | 995.8 kg/m3
11892 kPa | 995.9 kg/m3
11903 kPa | 995.8 kg/m3
11916 kPa | 995.8 kg/m3
11919 kPa | 995.9 kg/m3
11920 kPa | 995.9 kg/m3 and 995.8 kg/m3 and 995.7 kg/m3
11921 kPa | 995.9 kg/m3
11922 kPa | 995.8 kg/m3 and 995.9 kg/m3
11923 kPa | 995.8 kg/m3
12035 kPa | 995.9 kg/m3
12053 kPa | 996 kg/m3
12071 kPa | 995.9 kg/m3
12092 kPa | 995.9 kg/m3
12111 kPa | 995.9 kg/m3
12129 kPa | 996 kg/m3
12151 kPa | 996.1 kg/m3
12169 kPa | 996 kg/m3
12188 kPa | 995.9 kg/m3
12212 kPa | 996 kg/m3
12226 kPa | 996.1 kg/m3
12248 kPa | 996 kg/m3
12267 kPa | 996.1 kg/m3
12285 kPa | 996.1 kg/m3
12308 kPa | 996.1 kg/m3
12326 kPa | 996.1 kg/m3
12348 kPa | 996.1 kg/m3
12367 kPa | 996.1 kg/m3
12386 kPa | 996.2 kg/m3
12409 kPa | 996.2 kg/m3
12428 kPa | 996.2 kg/m3
12448 kPa | 996.1 kg/m3
12468 kPa | 996.2 kg/m3
12490 kPa | 996.3 kg/m3
12509 kPa | 996.3 kg/m3
12529 kPa | 996.2 kg/m3
12552 kPa | 996.3 kg/m3
12571 kPa | 996.1 kg/m3
12591 kPa | 996.2 kg/m3
12610 kPa | 996.3 kg/m3
12634 kPa | 996.3 kg/m3
12654 kPa | 996.2 kg/m3
12673 kPa | 996.3 kg/m3
12697 kPa | 996.4 kg/m3
12716 kPa | 996.4 kg/m3
12736 kPa | 996.4 kg/m3
